# pKi: −log10 of the molar value. Where two headings read alike, the source gives them in different places.
# Tests used:
# [1] = Tissue levels of antagonists (brain penetrance); assay type: in vivo, mouse; conditions: mice, 3 and 10 mg/kg ip, 1 hour
# Protocol: Tissue levels of antagonists. […] Blood was collected, and the mice were perfused with phosphate buffered saline for 1 min to remove drug from the intravascular space before removing the brain and liver. Drug levels in tissue homogenates and plasma were determined by using LC-MS/MS.
# [2] = tested on: mice with diet-induced obesity (DIO); test: Glycemic control (ipGTT, ipIST, glucose, insulin) in DIO mice; assay type: in vivo, mouse; conditions: for HFD-induced glucose intolerance / HFD-induced hyperglycemia: DIO mice, 10 mg/kg/d ip
# Protocol: Glucose tolerance (ipGTT) test and insulin sensitivity tests (ipIST). Mice that fasted overnight were injected with glucose (1.5 g/kg, ip), followed by a tail blood collection at 0, 15, 30, 45, 60, 90, and 120 minutes. Blood glucose levels were determined using the Elite glucometer (Bayer, Pittsburgh, PA). On the following day, mice were fasted for 6 h before receiving insulin (0.75 U/kg, i.p.; Eli Lilly, […], USA or Actrapid® vial, novo nordisk A/S, Denmark), and blood glucose levels were determined at the same intervals as above.
# (§1) Blood and urine biochemistry. Serum and urine levels of creatinine as well as serum levels of ALT, AST, ALP, HDL, LDL, TG and cholesterol were determined by using the Cobas C-111 chemistry analyzer (Roche, Switzerland). Creatinine clearance was calculated using urine and serum creatinine levels (CCr mL/h=Urine creatinine mg/dL×Urine volume/Serum creatinine mg/dL×24 hrs). Serum insulin levels were measured by an ELISA kit (Crystal Chem, Inc., Downers Grove, IL, USA). Fasting blood glucose was measured using the Elite glucometer (Bayer, Pittsburgh, PA).
# CB1 receptor [3] = target: T1, CB1 receptor (Mus musculus, UniProt P47746); test: [3H]CP-55,940 radioligand displacement assay; assay type: binding
# T1 construct: crude membranes from mouse brain for CB1 receptor; from tissue; host or cells: mouse brain membranes (crude / P2)
# T1 sequence (P47746 whole entry): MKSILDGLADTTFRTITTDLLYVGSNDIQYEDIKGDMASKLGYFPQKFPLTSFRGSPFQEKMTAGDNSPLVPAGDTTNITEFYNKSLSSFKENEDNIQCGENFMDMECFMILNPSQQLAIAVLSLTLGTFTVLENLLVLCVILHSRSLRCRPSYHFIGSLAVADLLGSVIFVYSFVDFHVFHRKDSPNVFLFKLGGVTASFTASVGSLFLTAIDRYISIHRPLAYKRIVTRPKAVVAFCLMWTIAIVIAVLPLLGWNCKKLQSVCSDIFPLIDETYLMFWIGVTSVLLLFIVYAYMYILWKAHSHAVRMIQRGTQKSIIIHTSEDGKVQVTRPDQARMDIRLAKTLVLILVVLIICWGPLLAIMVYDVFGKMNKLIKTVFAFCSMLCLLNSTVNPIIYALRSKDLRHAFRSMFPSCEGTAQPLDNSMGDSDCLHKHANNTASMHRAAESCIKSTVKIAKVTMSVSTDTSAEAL
# Protocol: Radioligand binding assays. BNS-002 binding to CB1 receptor was assessed in competition displacement assays using [^3H]CP-55,940 as the radioligand and crude membranes from mouse brain for CB1 receptor. All data were in triplicates with Ki values determined from three independent experiments.
# Radioligand binding assay. Binding of the tested compounds to CB1 receptor was assessed in competition displacement assays using [3H]CP-55,940 as the radioligand and crude membranes from mouse brain for CB1 receptor. Membranes were extracted according to an established protocol previously described by Catani V. M. and Gasperi V.. Compounds were tested at different concentrations (10-5M-10-11M) and their ability to displace [3H]CP-55,940 was evaluated. Membranes with bound [3H]CP-55,940 were separated and washed from free ligand by vacuum filtration and bound [3H]CP-55,940 radioactivity was measured using a […]. All data were in triplicates with Ki values extracted by nonlinear regression analysis using GraphPad Prism software.
# [4] = tested on: mice with diet-induced obesity (DIO); test: HFD-induced kidney hyperfiltration; assay type: in vivo, mouse
# Protocol: as §1
# [5] = tested on: mice with diet-induced obesity (DIO); test: HFD-induced hepatic steatosis and liver injury; assay type: in vivo, mouse; conditions: for HFD-induced hepatic steatosis (fat vacuoles in the liver): DIO mice, 10 mg/kg/d ip
# Protocol: as §1
# Histopathological Analyses. 5 μm paraffin-embedded liver sections from 5 animals per group were stained with hematoxylin-eosin staining. Liver images were captured with a Zeiss AxioCam ICc5 color camera mounted on a Zeiss Axio Scope.A1 light microscope and taken from 10 random 40× fields of each animal.
# mice [6] = test: Antagonizing cannabinoid (HU-210)-induced hypomotility; assay type: in vivo, mouse; conditions: for increase in immobility induced by HU-210: HU-210 30 μg/kg ip, rimonabant 10 mg/kg ip, BNS-002 10, 20 and 50 mg/kg
# Protocol: (§2) Locomotor activity. Locomotor activity was quantified by the number of disruptions of infrared XYZ beam arrays with a beam spacing of 0.25 cm in the Promethion High-Definition Behavioral Phenotyping System (Sable Instruments, Inc., Las Vegas, NV, USA).
# Antagonizing cannabinoid-induced hypomotility. The ability of the different compounds to inhibit the hypomotility induced by HU210 (cannabinoid agonist) was evaluated. […] A half an hour thereafter, mice received a single dose of HU210 (30 ug/kg, IP) and their locomotor activity was evaluated as described above.
# [7] = tested on: mice with diet-induced obesity (DIO); test: Body weight, adiposity and food intake in diet-induced obese mice; assay type: in vivo, mouse
# Text: Mice. The experimental protocol used was approved by the Institutional Animal Care and Use Committee of the Hebrew University, which is an AAALAC International accredited institute. Male 6 week old C57Bl/6J mice were obtained from Harlan Laboratories. Mice were maintained under a 12-h light/dark cycle and fed ad libitum. To generate diet-induced obesity, C57Bl6/J mice were fed either a high-fat diet (HFD) (60% of calories from fat, 20% from protein, and 20% from carbohydrates; Research Diet, D12492) or a standard laboratory diet (STD, 14% fat, 24% protein, 62% carbohydrates; NIH-31 rodent diet) for 14 weeks.
# Age-matched control mice on STD received vehicle daily. Body weight and food intake were monitored daily. Total body fat and lean masses were determined by EchoMRI-100H™ (Echo Medical Systems LLC, Houston, TX, USA). 24 h urine was collected one week before euthanasia using mouse metabolic cages (CCS2000 Chiller System, Hatteras Instruments, NC, USA). At weeks 20 mice were euthanized by a cervical dislocation under anesthesia, the kidneys, brain, liver, fat pads, and muscles were removed and weighed, and samples were either snap-frozen or fixed in buffered 4% formalin Trunk blood was collected for determining the biochemical parameters.
# [8] = tested on: mice with diet-induced obesity (DIO); test: Multi-parameter metabolic assessment (indirect calorimetry) in DIO mice; assay type: in vivo, mouse; conditions: for HFD-induced reduction in VO2 / HFD-induced reduction in fat oxidation / HFD-induced reduction in total energy expenditure: DIO mice, 10 mg/kg/d ip
# Protocol: Multi-parameter metabolic assessment. Metabolic profile of the mice was assessed by using the Promethion High-Definition Behavioral Phenotyping System (Sable Instruments, Inc., Las Vegas, NV, USA). Data acquisition and instrument control were performed using MetaScreen software version 2.2.18.0, and the obtained raw data were processed using ExpeData version 1.8.4 using an analysis script detailing all aspects of data transformation. Mice with free access to food and water were subjected to a standard 12 h light/12 h dark cycle, which consisted of a 48 h acclimation period followed by 24 h of sampling. Respiratory gases were measured by using the GA-3 gas analyzer (Sable Systems, Inc., Las Vegas, NV, USA) using a pull-mode, negative-pressure system. Air flow was measured and controlled by FR-8 (Sable Systems, Inc., Las Vegas, NV, USA), with a set flow rate of 2000 mL/min. Water vapor was continuously measured and its dilution effect on O2 and CO2 was mathematically compensated. Effective mass was calculated by [body mass]^0.75. Fat oxidation (FO) and carbohydrate oxidation (CHO) were calculated as FO=1.69×VO2−1.69×VCO2 and CHO=4.57×VCO2−3.23×VO2 and expressed as g/d/kg^eff.Mass.
# CB1 receptor [9] = target: T1, CB1 receptor; test: [35S]GTPγS binding in mouse brain membranes; assay type: biochemical
# Protocol: [^35S]GTPγS binding. Mouse brains were dissected and P2 membranes prepared and resuspended at ˜6 μg protein/μL in 1 ml assay buffer (50 mM Tris HCl, 9 mM MgCl2, 0.2 mM EGTA, 150 mM NaCl; pH 7.4). […] Briefly, membranes (10 μg protein) were incubated in assay buffer containing 100 μM GDP, 0.05 nM [^35S]GTPγS, test compounds at 1 nM-1 μM, and 1.4 mg/mL fatty acid-free BSA in siliconized glass tubes. Bound ligand was separated from free by vacuum filtration. Non-specific binding was determined using 10 μM GTPS. Basal binding was assayed in the absence of the ligand and in the presence of GDP.
# mice [10] = test: Centrally-mediated hyperactivity / activity profile; assay type: in vivo, mouse; conditions: for activity profile / hyperactivity vs vehicle group: single dose IP: rimonabant 10, TMP 35, EST 40, IDB 20 mg/kg
# Protocol: as §2
# as §2, with “Centrally-mediated hyperactivity profile. […] Mice were placed in metabolic cages and their activity profile was evaluated.” for “Locomotor activity.”
# [11] = tested on: mice with diet-induced obesity (DIO); test: Serum lipids (dyslipidemia) in DIO mice; assay type: in vivo, mouse; conditions: 20 mg/kg/day for 20 days
# Protocol: as §1
# [12] = [3H]CP-55,940, crude membranes from mouse brain, read-out: Ki for CB1 receptor
# [13] = 7 days, rimonabant 10 mg/kg/d, BNS-002 30 mg/kg ip
# [14] = mice on high-fat diet, 20 mg/kg/day for 20 days
# [15] = DIO mice, 20 mg/kg/day for 20 days
compound,measurement,setting,value
"CCCCCCCCCCCCCCCCCCNC(=O)c1nn(-c2ccc(Cl)cc2Cl)c(-c2ccc(Cl)cc2)c1C [BNS-002, 5-(4-chlorophenyl)-1-(2,4-dichlorophenyl)-4-methyl-N-octadecyl-1H-pyrazole-3-carboxamide]",brain levels,[1],reduced
same,brain penetrance,[1],markedly reduced
same,serum levels,[1],increased
same,HFD-induced glucose intolerance,[2],completely reversed
same,HFD-induced hyperglycemia,[2],completely reversed
same,pKi,CB1 receptor [3]; [12],8.30
same,affinity for CB1 receptor (in words),CB1 receptor [3]; radioligand displacement,retains high affinity and selectivity
same,HFD-induced kidney hyperfiltration,[4]; BNS-002,completely normalized
same,HFD-induced hepatic steatosis (fat vacuoles in the liver),[5],partially
same,increase in immobility induced by HU-210,mice [6],unaffected
same,increased adiposity of mice on HFD,"[7]; 10 mg/kg/d ip, 28 days",significantly reduced by rimonabant only
same,overweight of mice on HFD,"[7]; 10 mg/kg/d ip, 28 days",significantly reduced by rimonabant only
same,body weight reduction,"[7]; 7 days, BNS-002 15 mg/kg ip",no effect
same,overweight of mice on HFD,[7]; [13],significantly reduced
same,HFD-induced reduction in VO2,[8],upregulate
same,HFD-induced reduction in fat oxidation,[8],upregulate
same,HFD-induced reduction in total energy expenditure,[8],upregulate
same,functional profile by GTPγS binding (inverse agonism),CB1 receptor [9],inverse agonist
same,GTPγS binding in mouse brain membranes,CB1 receptor [9]; compound alone,reduces GTPγS binding
same,action of the potent CB1 receptor agonist HU-210 on GTPγS binding,CB1 receptor [9]; with HU-210,able to ameliorate
"Cc1c(C(=O)OC2CC(C)(C)N([O])C(C)(C)C2)nn(-c2ccc(Cl)cc2Cl)c1-c1ccc(Cl)cc1 [EST, 2,2,6,6-tetramethyl-1-piperidin-4-yl 5-(4-chlorophenyl)-1-(2,4-dichlorophenyl)-4-methyl-1H-pyrazole-3-carboxylate]",activity profile / hyperactivity vs vehicle group,mice [10],no significant hyperactivity
same,pKi,CB1 receptor [3],8.11 to 9.43
"COC1=C(OC)C(=O)C(CCCCCCCCCCOC(=O)c2nn(-c3ccc(Cl)cc3Cl)c(-c3ccc(Cl)cc3)c2C)=C(C)C1=O [IDB, 10-(4,5-dimethoxy-2-methyl-3,6-dioxocyclohexa-1,4-dien-1-yl)decyl 5-(4-chlorophenyl)-1-(2,4-dichlorophenyl)-4methyl-1H-pyrazole-3-carboxylate]",activity profile / hyperactivity vs vehicle group,mice [10],no significant hyperactivity
same,fasting glucose levels,[2]; [14],reduced
same,fed glucose levels,[2]; [14],reduced
same,glucose tolerance,[2]; [14],reduced
same,glycosuria,[2]; [14],increases
same,insulin sensitivity,[2]; [14],improved
same,pKi,"CB1 receptor [3]; [3H]CP-55,940, crude membranes from mouse brain, range of Ki values (FIGS. 12-14), read-out: Ki values varying for each substance, ranging from",6.87 to 8.72
same,pKi,CB1 receptor [3]; [12],6.59
same,HFD-induced kidney hyperfiltration,"[4]; IDB, compared to the control",no effect
same,dyslipidemia in DIO mice,[11],improve
same,HDL,[11]; DIO mice,reduce
same,HDL-to-LDL ratio,[11]; DIO mice,increase
same,LDL,[11]; DIO mice,reduce
same,total cholesterol,[11]; DIO mice,reduce
same,triglycerides,[11]; DIO mice,reduce
same,HFD-induced hepatic steatosis and liver injury,[5]; 20 mg/kg/day for 20 days,reduce
same,"liver enzymes (AST, ALT, and ALP)",[5]; 20 mg/kg/day for 20 days,reduction
same,liver weight,[5]; 20 mg/kg/day for 20 days,decrease
same,body weight,[7]; [15],reduced
same,daily and total food intake,[7]; [15],reduced
same,fat mass,[7]; [15],reduced
same,lean mass,[7]; [15],increased
same,"metabolic parameters (respiratory quotient, VO2, VCO2, total energy expenditure, fat oxidation, carbohydrate oxidation)","[8]; 20 mg/kg/day for 20 days, over a 24 hr period",significant changes
same,functional profile by GTPγS binding (inverse agonism),CB1 receptor [9],inverse agonism profile
"Cc1c(C(=O)NC2CC(C)(C)N([O])C(C)(C)C2)nn(-c2ccc(Cl)cc2Cl)c1-c1ccc(Cl)cc1 [TMP, 5-(4-chlorophenyl)-1-(2,4-dichlorophenyl)-4-methyl-N-(2,2,6,6-tetramethyl-1-oxo-1-piperidin-4-yl)-1H-pyrazole-3-carboxamide]",activity profile / hyperactivity vs vehicle group,mice [10],no significant hyperactivity
same,pKi,CB1 receptor [3],6.35 to 8.77
"Cc1c(C(=O)NN2CCCCC2)nn(-c2ccc(Cl)cc2Cl)c1-c1ccc(Cl)cc1 [rimonabant, reference compound]",activity profile in mice,"mice [10]; rimonabant 10 mg/kg ip, BNS-002 10, 20 and 50 mg/kg ip",marked increase
same,activity profile / hyperactivity vs vehicle group,mice [10],marked increase
same,HFD-induced glucose intolerance,[2],completely reversed
same,HFD-induced hyperglycemia,[2],completely reversed
same,HFD-induced hepatic steatosis (fat vacuoles in the liver),[5],completely reversed
same,hypomotility induced by HU210,"mice [6]; HU210 30 ug/kg IP, rimonabant 10, TMP 35, EST 40, IDB 20 mg/kg IP",significantly blocked
same,increase in immobility induced by HU-210,mice [6],completely blocked
same,increased adiposity of mice on HFD,"[7]; 10 mg/kg/d ip, 28 days",significantly reduced
same,overweight of mice on HFD,"[7]; 10 mg/kg/d ip, 28 days",significantly reduced
same,overweight of mice on HFD,[7]; [13],significantly reduced
same,total caloric intake,"[7]; DIO mice, 10 mg/kg/d ip",ability to reduce
same,HFD-induced reduction in VO2,[8],upregulate
same,HFD-induced reduction in fat oxidation,[8],upregulate
same,HFD-induced reduction in total energy expenditure,[8],upregulate
